Source: patent publication US8394848B2, “Compounds that modulate intracellular calcium” (Calcimedica, Inc., priority 2008, dated 2013)

Tested on: JR251 or RBL cells
Test: Store-operated calcium entry, either JR251 or RBL cells, or both
Format: cell-based
Method in brief: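 FLIPR calcium-entry readout in fluo-4-loaded cells held in Ca2+-free HBSS before calcium add-back. For RBL-2H3, store depletion used thapsigargin for 25 min after a 5 min compound pre-incubation, and IC50 was based on the 7 s Upslope. For Orai1/STIM1 stable cells, compound was pre-incubated 30 min and IC50 was based on Peak-Basal.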

IC50, < 10 µM:
Cc1ccc(-c2csc(NC(=O)c3scc(S(=O)(=O)C(C)C)c3Cl)c2C(=O)O)cc1 [2-(3-chloro-4-(isopropylsulfonyl)thiophene-2-carboxamido)-4-p-tolylthiophene-3-carboxylic acid]
O=C(Nc1scc(-c2cc3cccc(O)c3o2)c1C(=O)O)c1cc2c(F)cccc2o1 [2-(4-fluorobenzofuran-2-carboxamido)-4-(7-hydroxybenzofuran-2-yl)thiophene-3-carboxylic acid]
CC(C)(C)C(Cc1ccccc1)C(=O)Nc1scc(-c2ccc(Cl)cc2)c1C(=O)O (centres unmarked) [2-(2-benzyl-3,3-dimethylbutanamido)-4-(4-chlorophenyl)thiophene-3-carboxylic acid]
COc1cccc(CC(=O)Nc2scc(-c3ccc(Cl)c(Cl)c3)c2C(=O)O)c1 [4-(3,4-dichlorophenyl)-2-(2-(3-methoxyphenyl)acetamido)thiophene-3-carboxylic acid]
O=C(Nc1scc(-c2ccc(Cl)cc2)c1C(=O)O)c1cscn1 [4-(4-chlorophenyl)-2-(thiazole-4-carboxamido)thiophene-3-carboxylic acid]
O=C(CCc1ccc(F)cc1F)Nc1scc(-c2ccc(Br)cc2)c1C(=O)O [4-(4-bromophenyl)-2-(3-(2,4-difluorophenyl)propanamido)thiophene-3-carboxylic acid]
Cc1cc(-c2csc(NC(=O)c3cc4ccccc4o3)c2C(=O)O)c(C)cc1F [2-(benzofuran-2-carboxamido)-4-(4-fluoro-2,5-dimethylphenyl)thiophene-3-carboxylic acid]
O=C(O)c1c(-c2ccc(Cl)cc2)csc1NC(=O)C(Cl)Cc1ccccc1Cl (centres unmarked) [2-(2-chloro-3-(2-chlorophenyl)propanamido)-4-(4-chlorophenyl)thiophene-3-carboxylic acid]
O=C(Nc1scc(-c2ccc(F)c(O)c2F)c1C(=O)O)c1nc2ccccc2o1 [2-(benzo[d]oxazole-2-carboxamido)-4-(2,4-difluoro-3-hydroxyphenyl)thiophene-3-carboxylic acid]
Cc1ccc(-c2csc(NC(=O)c3nc4ccccc4o3)c2C(=O)O)cc1C [2-(benzo[d]oxazole-2-carboxamido)-4-(3,4-dimethylphenyl)thiophene-3-carboxylic acid]
O=C(Nc1scc(-c2ccc(Cl)c(F)c2F)c1C(=O)O)c1nc2ccccc2s1 [2-(benzo[d]thiazole-2-carboxamido)-4-(4-chloro-2,3-difluorophenyl)thiophene-3-carboxylic acid]
O=C(CCc1ccccc1)Nc1scc(-c2ccc(Cl)cc2Cl)c1C(=O)O [4-(2,4-dichlorophenyl)-2-(3-phenylpropanamido)thiophene-3-carboxylic acid]
Cc1nnsc1C(=O)Nc1scc(-c2ccc(Cl)cc2)c1C(=O)O [4-(4-chlorophenyl)-2-(4-methyl-1,2,3-thiadiazole-5-carboxamido)thiophene-3-carboxylic acid]
O=C(Nc1scc(-c2ccc(C(F)(F)F)cc2)c1C(=O)O)c1nc2ccccc2o1 [2-(benzo[d]oxazole-2-carboxamido)-4-(4-(trifluoromethyl)phenyl)thiophene-3-carboxylic acid]
O=C(Nc1scc(-c2ccc(Cl)cc2)c1C(=O)O)c1c[nH]nc1-c1ccccc1 [4-(4-chlorophenyl)-2-(3-phenyl-1H-pyrazole-4-carboxamido)thiophene-3-carboxylic acid]
O=C(Nc1scc(-c2ccc(Br)cc2)c1C(=O)O)c1nc2cccc(F)c2o1 [4-(4-bromophenyl)-2-(7-fluorobenzo[d]oxazole-2-carboxamido)thiophene-3-carboxylic acid]
N#Cc1ccc(-c2csc(NC(=O)c3nc4ccccc4o3)c2C(=O)O)c(F)c1 [2-(benzo[d]oxazole-2-carboxamido)-4-(4-cyano-2-fluorophenyl)thiophene-3-carboxylic acid]
O=C(Nc1scc(-c2ccc(Br)cc2)c1C(=O)O)c1cccc(F)n1 [4-(4-bromophenyl)-2-(6-fluoropicolinamido)thiophene-3-carboxylic acid]
COc1cc(Br)cc2cc(-c3csc(NC(=O)c4cc5ccccc5o4)c3C(=O)O)oc12 [2-(benzofuran-2-carboxamido)-4-(5-bromo-7-methoxybenzofuran-2-yl)thiophene-3-carboxylic acid]
O=C(CCc1ccc(Cl)cc1)Nc1scc(-c2ccc(Cl)cc2)c1C(=O)O [4-(4-chlorophenyl)-2-(3-(4-chlorophenyl)propanamido)thiophene-3-carboxylic acid]
O=C(O)c1c(-c2ccccc2Br)csc1NC(=O)C1CC1 [4-(2-bromophenyl)-2-(cyclopropanecarboxamido)thiophene-3-carboxylic acid]
O=C(Nc1scc(-c2cc3cc(O)ccc3o2)c1C(=O)O)c1cc2ccccc2o1 [2-(benzofuran-2-carboxamido)-4-(5-hydroxybenzofuran-2-yl)thiophene-3-carboxylic acid]
O=C(Nc1scc(-c2ccc(Cl)c(Cl)c2)c1C(=O)O)c1ccsc1 [4-(3,4-dichlorophenyl)-2-(thiophene-3-carboxamido)thiophene-3-carboxylic acid]
COc1ccc(-c2csc(NC(=O)CCc3ccccc3)c2C(=O)O)cc1 [4-(4-methoxyphenyl)-2-(3-phenylpropanamido)thiophene-3-carboxylic acid]
O=C(Nc1scc(-c2ccc(Cl)cc2)c1C(=O)O)c1ccc2ncsc2c1 [2-(benzo[d]thiazole-6-carboxamido)-4-(4-chlorophenyl)thiophene-3-carboxylic acid]
O=C(O)c1c(-c2ccc(Cl)cc2)csc1NC(=O)[C@H](F)Cc1ccccc1Cl [(R)-4-(4-chlorophenyl)-2-(3-(2-chlorophenyl)-2-fluoropropanamido)thiophene-3-carboxylic acid]
O=C(CCc1cccc(F)c1)Nc1scc(-c2ccc(Cl)cc2)c1C(=O)O [4-(4-chlorophenyl)-2-(3-(3-fluorophenyl)propanamido)thiophene-3-carboxylic acid]
Cc1cccc2nc(C(=O)Nc3scc(-c4ccc(Cl)cc4)c3C(=O)O)oc12 [4-(4-chlorophenyl)-2-(7-methylbenzo[d]oxazole-2-carboxamido)thiophene-3-carboxylic acid]
O=C(Nc1scc(-c2ccc(Br)cc2)c1C(=O)O)c1nc2cc(Cl)ccc2o1 [4-(4-bromophenyl)-2-(5-chlorobenzo[d]oxazole-2-carboxamido)thiophene-3-carboxylic acid]
O=C(Nc1scc(-c2ccc(Br)cc2)c1C(=O)O)OCc1ccccc1 [2-(benzyloxycarbonylamino)-4-(4-bromophenyl)thiophene-3-carboxylic acid]
O=C(Nc1scc(OC(=O)c2cc3ccccc3o2)c1C(=O)O)OCc1ccccc1 [4-(benzofuran-2-carbonyloxy)-2-(benzyloxycarbonylamino)thiophene-3-carboxylic acid]
O=C(Nc1scc(-c2ccc(F)cc2F)c1C(=O)O)c1nc2ccccc2o1 [2-(benzo[d]oxazole-2-carboxamido)-4-(2,4-difluorophenyl)thiophene-3-carboxylic acid]
